Results as given in US7728043B2, “Methods for treatment of beta-amyloid protein-induced ocular disease” (priority 1999, dated 2010).

How the values were obtained:
[1] = test system: PC12 cells; test: MTT reduction assay, βA peptide-induced toxicity, PC12 cells; format: cell-based, rat; details: for Protection of PC12 cells from βA peptide insults (control study): even at 200 μg/ml, βA peptide(25-35) and βA peptide(1-42); for ED50 of βA peptide toxicity to PC12 cells: peptide alone, collagen-coated 96-well plates
Description: (§1) The degree of βA insult was measured by 3-[4,5-dimethylthiazol-2-yl]-2,5-diphenyltetrazolium bromide (MTT) reduction assay. […] The detection of cell growth or cell death can be determined by observing the conversion of MTT to the colored product, MTT formazan, the concentration of which can be measured […] at 550 nm.
(§2) Cells were incubated in MTT solution (5 mg/ml) at 37° C. for 2 hours. During this time, cells were observed under a microscope every 15 min. Cells were incubated in Lysing buffer (100 μl) overnight at 37° C. Colorimetric determination of MTT reduction was made at 550 nm.
(§3) PC12 rat pheochromocytoma and IMR32 human neuroblastoma cells were obtained from the American Type Culture Collection (ATCC). HUVEC normal umbilical human vein endothelial cells were obtained from Clonetics (San Diego, Calif.). Cells were routinely cultured on a tissue culture plate (Corning, N.Y., N.Y.). PC12 cells were grown in high glucose Dulbecco's Modified Eagle Medium (DMEM), 10% horse serum, 5% fetal calf serum, and 1% penicillin/streptomycin. IMR32 cells were grown in 90% DMEM and 10% fetal calf serum with 1% penicillin/streptomycin. HUVEC cells were grown in EGM-2 Bullet Kit (Clonetics, San Diego, Calif.).
PC12 cells were cultured routinely on polystyrene-coated Corning tissue culture plates. […] The 96-well plates were coated with rat tail collagen (Boehringer Mannheim) in order to promote uniform PC12 cell attachment and growth.

[2] = test system: IMR32 cells; test: MTT reduction assay, βA peptide-induced toxicity, IMR32 cells; format: cell-based, human; details: for ED50 of βA peptide toxicity to IMR32 cells: peptide alone
Description: as §1, §2, §3

[3] = test system: HUVEC cells; test: MTT reduction assay, βA peptide-induced toxicity, HUVEC cells; format: cell-based, human
Description: as §1, §2, §3

[4] = test system: cells treated with βA peptide; test: Protection of cells from βA peptide insult, statements in words (MTT assay, cells not singled out); format: cell-based; details: MTT reduction assay; PC12, IMR32, HUVEC cells where named in the sentence
Description: as §1, §2

[5] = Antioxidant assay, scavenging of DPPH free radicals; details: for Antioxidant IC50: Table 2, synthesized curcuminoids, DPPH; for Antioxidant activity (DPPH free radical scavenging), in words: optical density change of DPPH radicals at 515 nm
Description: Kim et al., Neurosci Lett 303, 57 (2001) and Barik et al., Free Radic Biol Med 39, 811 (2005).
Using an antioxidant assay, the antioxidant potency of the compounds of the invention was evaluated. 1,1-Diphenyl-2-picrylhydrazyl (DPPH) is known to generate stable free radicals in aqueous and ethanolic solutions. The ability of the compounds of the invention to scavenge these free radicals was measured by observing the optical density change of DPPH radicals at 515 nm. Kim et al., Neurosci Lett 303, 57 (2001) and Barik et al., Free Radic Biol Med 39, 811 (2005).
The samples were prepared in various concentrations (200, 20, 2.0, and 0.2 μg/ml) by serial dilution of a stock solution (5 mg/ml) and were tested by the following procedure. Reaction mixtures containing test compounds (dissolved in DMSO) and 300 μM DPPH ethanolic solution in 96-well microtiter plates were incubated at 37° C. for 30 min. and absorbance was measured at 515 nm. Percent inhibition by sample treatment was determined by comparison with a DMSO-treated […] control group. IC50 values were determined from percent inhibition by sample. IC50 values denote the concentration of the tested compound that was required to scavenge 50% of the DPPH free radicals.

[6] = Table 2, synthesized curcuminoids
[7] = Table 3, ginger-derived natural product compounds

## CC(C)(C)[C@]1(O)CC2OC(=O)CC23C(=O)OC2OC(=O)[C@H](O)C231 (single isomer, unassigned; (-)) [(−)-Bilobalide, reference compound]
[1]; Table 4, ginkgo compounds
  Anti-βA peptide(1-42) ED50 PC12: toxic
  Anti-βA peptide(25-35) ED50 PC12: toxic
[2]; Table 4, ginkgo compounds
  Anti-βA peptide(1-42) ED50 IMR32: toxic
  Anti-βA peptide(25-35) ED50 IMR32: toxic
[3]; Table 4, ginkgo compounds
  Anti-βA peptide(1-42) ED50 HUVEC: toxic
  Anti-βA peptide(25-35) ED50 HUVEC: toxic
[4]
  Protection of cells from βA peptide-induced toxicity, in words: do not possess biological activity

## O=C(CCc1ccccc1)CC(=O)CCc1ccc(O)cc1 [Compound 7]
[1]; [6]
  Anti-βA peptide(1-42) ED50 PC12: toxic
  Anti-βA peptide(25-35) ED50 PC12: toxic
[2]; [6]
  Anti-βA peptide(1-42) ED50 IMR32: toxic
  Anti-βA peptide(25-35) ED50 IMR32: toxic
[5]
  Antioxidant IC50: >200 µg/mL
[4]
  Protection of cells from βA peptide-induced toxicity, in words: cytotoxic

## O=C(C=C(O)C=Cc1ccccc1)CCc1ccc(O)cc1 [Compound 8]
[1]; [6]
  Anti-βA peptide(1-42) ED50 PC12: toxic
  Anti-βA peptide(25-35) ED50 PC12: toxic
[2]; [6]
  Anti-βA peptide(1-42) ED50 IMR32: toxic
  Anti-βA peptide(25-35) ED50 IMR32: toxic
[5]
  Antioxidant IC50: >200 µg/mL
[4]
  Protection of cells from βA peptide-induced toxicity, in words: cytotoxic

## O=C(CCc1ccc(O)cc1)CC(=O)CCc1ccc(O)cc1 [Compound 9]
[1]; [6]
  Anti-βA peptide(1-42) ED50 PC12: 9.0 µg/mL
  Anti-βA peptide(25-35) ED50 PC12: 10.0 µg/mL
[2]; [6]
  Anti-βA peptide(1-42) ED50 IMR32: 11.0 µg/mL
  Anti-βA peptide(25-35) ED50 IMR32: 12.0 µg/mL
[5]
  Antioxidant IC50: >200 µg/mL
[4]
  Protection of cells from βA peptide-induced toxicity, in words: protected

## COc1ccc(/C=C/C(=O)CC(=O)CCc2ccc(O)cc2)cc1 [Compound 10]
[1]; [6]
  Anti-βA peptide(1-42) ED50 PC12: toxic
  Anti-βA peptide(25-35) ED50 PC12: toxic
[2]; [6]
  Anti-βA peptide(1-42) ED50 IMR32: toxic
  Anti-βA peptide(25-35) ED50 IMR32: toxic
[5]
  Antioxidant IC50: >200 µg/mL
[4]
  Protection of cells from βA peptide-induced toxicity, in words: cytotoxic

## CCC/C=C/C(=O)CCc1ccc(O)c(OC)c1 [Compound 11]
[1]; [7]
  Anti-βA peptide(1-42) ED50 PC12: 12 µg/mL
  Anti-βA peptide(25-35) ED50 PC12: 15 µg/mL
[2]; [7]
  Anti-βA peptide(25-35) ED50 IMR32: 15 µg/mL
[3]; [7]
  Anti-βA peptide(1-42) ED50 HUVEC: 20 µg/mL
  Anti-βA peptide(25-35) ED50 HUVEC: 20 µg/mL
[5]
  Antioxidant activity (DPPH free radical scavenging), in words: None of these compounds exhibited significant antioxidant activity
[4]
  Protection of cells from βA peptide-induced toxicity, in words: effectively protected

## CCCCC/C=C/C(=O)CCc1ccc(O)c(OC)c1 [Compound 12]
[1]; [7]
  Anti-βA peptide(1-42) ED50 PC12: 10 µg/mL
  Anti-βA peptide(25-35) ED50 PC12: 9.0 µg/mL
[2]; [7]
  Anti-βA peptide(25-35) ED50 IMR32: 8.0 µg/mL
[3]; [7]
  Anti-βA peptide(1-42) ED50 HUVEC: 18 µg/mL
  Anti-βA peptide(25-35) ED50 HUVEC: 20 µg/mL
[5]
  Antioxidant activity (DPPH free radical scavenging), in words: None of these compounds exhibited significant antioxidant activity
[4]
  Protection of cells from βA peptide-induced toxicity, in words: effectively protected

## CCCCCCCC/C=C/C(=O)CCc1ccc(O)c(OC)c1 [Compound 13, [9]-shogaol]
[1]; [7]
  Anti-βA peptide(1-42) ED50 PC12: 4.0 µg/mL
  Anti-βA peptide(25-35) ED50 PC12: 3.0 µg/mL
[2]; [7]
  Anti-βA peptide(25-35) ED50 IMR32: 2.0 µg/mL
[3]; [7]
  Anti-βA peptide(1-42) ED50 HUVEC: 8.0 µg/mL
  Anti-βA peptide(25-35) ED50 HUVEC: 8.0 µg/mL
[5]
  Antioxidant activity (DPPH free radical scavenging), in words: None of these compounds exhibited significant antioxidant activity
[4]
  Protection of cells from βA peptide-induced toxicity, in words: effectively protected

## CCCCCC/C=C\CCCCCCCc1cccc(O)c1C(=O)O [Compound 15]
[1]; Table 4, ginkgo compounds
  Anti-βA peptide(1-42) ED50 PC12: 2.0 µg/mL
  Anti-βA peptide(25-35) ED50 PC12: 3.0 µg/mL
[2]; Table 4, ginkgo compounds
  Anti-βA peptide(1-42) ED50 IMR32: 2.5 µg/mL
  Anti-βA peptide(25-35) ED50 IMR32: 3.5 µg/mL
[3]; Table 4, ginkgo compounds
  Anti-βA peptide(1-42) ED50 HUVEC: 1.5 µg/mL
  Anti-βA peptide(25-35) ED50 HUVEC: 5.0 µg/mL
[5]
  Antioxidant activity (DPPH free radical scavenging), in words: do not possess antioxidant properties
[4]
  Protection of cells from βA peptide-induced toxicity, in words: protect

## CCCCCCCCCCC(=O)CCc1ccc(O)c(OC)c1 [Compound 45, [9]-dihydroshogaol]
[4]
  Protection of cells from βA peptide-induced toxicity, in words: effectively protected

## CCCCCCCCC=CC(=O)CCc1ccc(O)cc1 [Compound 50, [9]-demethoxyshogaol]
[4]
  Protection of cells from βA peptide-induced toxicity, in words: effectively protected

## C[C@@H]1C(=O)O[C@H]2C[C@@]34[C@H]5C[C@@H](C(C)(C)C)[C@]36[C@@H](OC(=O)[C@@H]6O)O[C@@]4(C(=O)O5)[C@]21O [Ginkgolide A, reference compound]
[1]; Table 4, ginkgo compounds
  Anti-βA peptide(1-42) ED50 PC12: toxic
  Anti-βA peptide(25-35) ED50 PC12: toxic
[2]; Table 4, ginkgo compounds
  Anti-βA peptide(1-42) ED50 IMR32: toxic
  Anti-βA peptide(25-35) ED50 IMR32: toxic
[3]; Table 4, ginkgo compounds
  Anti-βA peptide(1-42) ED50 HUVEC: toxic
  Anti-βA peptide(25-35) ED50 HUVEC: toxic
[4]
  Protection of cells from βA peptide-induced toxicity, in words: do not possess biological activity

## CC1C(=O)OC2C(O)C34C5CC(C(C)(C)C)C36C(OC(=O)C6O)OC4(C(=O)O5)C12O (stereo not drawn) [Ginkgolide B, reference compound]
[1]; Table 4, ginkgo compounds
  Anti-βA peptide(1-42) ED50 PC12: toxic
  Anti-βA peptide(25-35) ED50 PC12: toxic
[2]; Table 4, ginkgo compounds
  Anti-βA peptide(1-42) ED50 IMR32: toxic
  Anti-βA peptide(25-35) ED50 IMR32: toxic
[3]; Table 4, ginkgo compounds
  Anti-βA peptide(1-42) ED50 HUVEC: toxic
  Anti-βA peptide(25-35) ED50 HUVEC: toxic
[4]
  Protection of cells from βA peptide-induced toxicity, in words: do not possess biological activity

## O=c1c(O)c(-c2ccc(O)c(O)c2)oc2cc(O)cc(O)c12 [Quercetin, reference compound]
[1]; Table 4, ginkgo compounds
  Anti-βA peptide(1-42) ED50 PC12: >20 µg/mL
  Anti-βA peptide(25-35) ED50 PC12: >20 µg/mL
[2]; Table 4, ginkgo compounds
  Anti-βA peptide(1-42) ED50 IMR32: >20 µg/mL
  Anti-βA peptide(25-35) ED50 IMR32: >20 µg/mL
[3]; Table 4, ginkgo compounds
  Anti-βA peptide(1-42) ED50 HUVEC: >20 µg/mL
  Anti-βA peptide(25-35) ED50 HUVEC: >20 µg/mL
[4]
  Protection of cells from βA peptide-induced toxicity, in words: do not possess biological activity

## CC1=C(/C=C/C(C)=C/C=C/C(C)=C/CO)C(C)(C)CCC1 [vitamin A, reference compound]
[1]
  Protection of PC12 cells from βA peptide insults (control study): did not protect

## O=C1O[C@H]([C@@H](O)CO)C(O)=C1O [vitamin C, reference compound]
[1]
  Protection of PC12 cells from βA peptide insults (control study): did not protect

## Cc1c(C)c2c(c(C)c1O)CCC(C)(CCCC(C)CCCC(C)CCCC(C)C)O2 (stereo not drawn) [vitamin E, reference compound]
[1]
  Protection of PC12 cells from βA peptide insults (control study): did not protect

## CC1=C(/C=C/C(C)=C/C=C/C(C)=C/C=C/C=C(C)/C=C/C=C(C)/C=C/C2=C(C)CCCC2(C)C)C(C)(C)CCC1 [β-carotene, reference compound]
[1]
  Protection of PC12 cells from βA peptide insults (control study): did not protect

## Ginkgolide C [reference compound]
[1]; Table 4, ginkgo compounds
  Anti-βA peptide(1-42) ED50 PC12: toxic
  Anti-βA peptide(25-35) ED50 PC12: toxic
[2]; Table 4, ginkgo compounds
  Anti-βA peptide(1-42) ED50 IMR32: toxic
  Anti-βA peptide(25-35) ED50 IMR32: toxic
[3]; Table 4, ginkgo compounds
  Anti-βA peptide(1-42) ED50 HUVEC: toxic
  Anti-βA peptide(25-35) ED50 HUVEC: toxic
[4]
  Protection of cells from βA peptide-induced toxicity, in words: do not possess biological activity

## βA peptide (1-42): beta-amyloid peptide 1-42 used as the toxic insult [reference compound]
[1]
  ED50 of βA peptide toxicity to PC12 cells: 5.0 µg/mL
[2]
  ED50 of βA peptide toxicity to IMR32 cells: 6.0 µg/mL

## βA peptide (25-35): beta-amyloid peptide fragment 25-35 used as the toxic insult (GSNKGAIIGLM; Amyloid-beta protein 42; UniProt P05067 696-706, looked up, fragment) [reference compound]
[1]
  ED50 of βA peptide toxicity to PC12 cells: 1.0 µg/mL
[2]
  ED50 of βA peptide toxicity to IMR32 cells: 3.0 µg/mL
[3]; peptide alone
  ED50 of βA peptide toxicity to HUVEC cells: 6.0 µg/mL
